These results are taken from ChEMBL document CHEMBL3351860, “Synthesis and SAR of thieno[3,2-b]pyridinyl urea derivatives as urotensin-II receptor antagonists” (Bioorg Med Chem Lett, 2014).

The target in one series is T1, Urotensin-2 receptor (Homo sapiens, UniProt Q9UKP6).
T1 sequence (Q9UKP6 whole entry): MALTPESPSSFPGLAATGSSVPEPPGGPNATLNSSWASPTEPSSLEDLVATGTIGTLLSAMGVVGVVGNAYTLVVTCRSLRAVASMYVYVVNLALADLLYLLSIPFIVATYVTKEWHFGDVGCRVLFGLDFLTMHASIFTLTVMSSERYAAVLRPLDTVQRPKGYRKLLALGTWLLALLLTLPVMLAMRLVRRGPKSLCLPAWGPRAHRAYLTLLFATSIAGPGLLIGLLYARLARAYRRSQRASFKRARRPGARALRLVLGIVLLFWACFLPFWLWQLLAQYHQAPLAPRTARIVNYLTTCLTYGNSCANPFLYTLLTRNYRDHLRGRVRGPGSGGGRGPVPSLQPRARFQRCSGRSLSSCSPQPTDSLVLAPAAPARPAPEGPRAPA
Description: Displacement of europium-labeled urotensin-II from human urotensin-2 receptor expressed in HEK293 cells by TRF assay. The class given is cell-based.

Series [1] has as its target T2, Urotensin-2 receptor (Homo sapiens) (UniProt Q9UKP6).
T2 sequence (whole entry): T1 sequence (Q9UKP6 whole entry)
Description: Displacement of europium-labeled urotensin-II from human urotensin-2 receptor expressed in HEK293 cells at 10 uM by TRF assay. The class given is cell-based.

Series [2] addresses Voltage-gated inwardly rectifying potassium channel KCNH2 (Homo sapiens, UniProt Q12809). Description: Inhibition of human ERG by patch clam assay.
A short description of series [3]: Metabolic stability in rat liver microsomes after 30 mins. The class given is ADME. The settings on record: read-out: Stability.
Series [4] can be described thus: Permeability of the compound by PAMPA assay. The class given is ADME. The conditions noted are these: read-out: permeability.
Series [5] is described as follows: Metabolic stability in human liver microsomes after 30 mins. The class given is ADME. The settings on record: read-out: Stability.
Another series addresses CYP3A4 (Homo sapiens, UniProt P08684). Description: Inhibition of CYP3A4 (unknown origin) at 10 uM. It is filed as ADME.

CYP3A4, sequence (P08684 whole entry): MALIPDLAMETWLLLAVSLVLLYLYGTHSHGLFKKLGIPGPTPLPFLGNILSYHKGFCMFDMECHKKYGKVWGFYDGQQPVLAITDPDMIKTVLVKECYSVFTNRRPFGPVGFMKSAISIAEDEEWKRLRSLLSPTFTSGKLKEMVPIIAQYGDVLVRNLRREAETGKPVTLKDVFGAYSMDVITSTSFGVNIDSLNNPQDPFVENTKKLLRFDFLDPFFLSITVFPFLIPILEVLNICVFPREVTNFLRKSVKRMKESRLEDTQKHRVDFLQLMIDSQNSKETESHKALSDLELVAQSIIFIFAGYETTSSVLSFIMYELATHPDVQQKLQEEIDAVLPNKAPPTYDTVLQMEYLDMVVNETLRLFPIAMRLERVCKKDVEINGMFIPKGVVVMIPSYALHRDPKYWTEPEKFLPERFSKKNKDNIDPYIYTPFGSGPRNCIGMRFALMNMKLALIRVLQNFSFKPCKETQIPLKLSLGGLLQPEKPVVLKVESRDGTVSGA
Voltage-gated inwardly rectifying potassium channel KCNH2, sequence (Q12809 whole entry): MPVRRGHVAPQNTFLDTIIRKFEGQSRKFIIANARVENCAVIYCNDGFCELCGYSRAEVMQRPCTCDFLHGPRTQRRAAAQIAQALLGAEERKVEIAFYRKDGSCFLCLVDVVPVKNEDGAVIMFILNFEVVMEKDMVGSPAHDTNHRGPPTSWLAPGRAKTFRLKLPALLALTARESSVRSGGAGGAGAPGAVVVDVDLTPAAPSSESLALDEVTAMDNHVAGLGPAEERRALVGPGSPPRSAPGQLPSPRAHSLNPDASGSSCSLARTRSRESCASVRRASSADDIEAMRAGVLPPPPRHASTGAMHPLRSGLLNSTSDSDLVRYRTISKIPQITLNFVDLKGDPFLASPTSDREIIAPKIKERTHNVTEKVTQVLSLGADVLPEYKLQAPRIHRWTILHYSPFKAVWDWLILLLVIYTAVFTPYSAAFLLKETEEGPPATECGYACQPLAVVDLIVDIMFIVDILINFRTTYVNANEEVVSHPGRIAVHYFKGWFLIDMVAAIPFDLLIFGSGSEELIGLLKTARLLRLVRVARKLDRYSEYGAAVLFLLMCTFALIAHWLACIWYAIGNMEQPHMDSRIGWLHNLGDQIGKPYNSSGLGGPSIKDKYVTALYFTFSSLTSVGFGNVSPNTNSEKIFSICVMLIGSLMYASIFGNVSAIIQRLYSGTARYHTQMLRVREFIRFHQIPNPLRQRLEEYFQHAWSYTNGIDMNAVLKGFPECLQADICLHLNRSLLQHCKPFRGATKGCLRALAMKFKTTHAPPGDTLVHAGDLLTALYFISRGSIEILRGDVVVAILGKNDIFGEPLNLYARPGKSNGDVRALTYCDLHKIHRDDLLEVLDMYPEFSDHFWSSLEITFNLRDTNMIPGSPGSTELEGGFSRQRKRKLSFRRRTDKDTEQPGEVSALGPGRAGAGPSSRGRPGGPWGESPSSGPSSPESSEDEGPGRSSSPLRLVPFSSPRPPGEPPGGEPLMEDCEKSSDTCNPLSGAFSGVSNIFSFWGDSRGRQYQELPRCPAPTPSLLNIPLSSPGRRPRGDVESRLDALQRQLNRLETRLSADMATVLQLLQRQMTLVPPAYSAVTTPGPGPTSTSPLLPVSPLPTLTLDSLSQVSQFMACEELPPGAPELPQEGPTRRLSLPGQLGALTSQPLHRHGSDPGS

On to `O=C(NCCN1CCC(O)(Cc2ccccc2)CC1)Nc1ccnc2ccoc12`, for which, on Urotensin-2 receptor, the IC50 was 450 nM.
Compound `O=C(NCCN1CCC(O)(Cc2cccc(Br)c2)CC1)Nc1ccnc2ccsc12` had an IC50 on Urotensin-2 receptor of 42 nM.
At Urotensin-2 receptor, `Cc1cc(NC(=O)NCCN2CCC(O)(Cc3ccccc3)CC2)c2cnn(C)c2n1` registered an IC50 of 220 nM.
Still for that read-out and setting: next, `O=C(NCCN1CCC(O)(Cc2ccccc2Br)CC1)Nc1ccnc2ccsc12`: 20 nM; `O=C(NCCN1CCC(O)(Cc2ccccc2)CC1)Nc1ccnc2sccc12`: 930 nM; `Cc1ccccc1CC1(O)CCN(CCNC(=O)Nc2ccnc3ccsc23)CC1`: 20 nM.
As to `Cc1cc2nccc(NC(=O)NCCN3CCC(O)(Cc4ccccc4)CC3)c2s1`, the IC50 at Urotensin-2 receptor turned out to be 78 nM.
On the same count and under the same terms, next, `Cc1ccc(CC2(O)CCN(CCNC(=O)Nc3ccnc4ccsc34)CC2)cc1`: 190 nM.
On the same count and under the same terms, the result for `Cc1cc(NC(=O)NCCN2CCC(O)(Cc3ccccc3)CC2)c2sccc2n1` reads 26 nM.
For the compound `Cn1ccc2nccc(NC(=O)NCCN3CCC(O)(Cc4ccccc4)CC3)c21`, the IC50 at Urotensin-2 receptor was found to be 600 nM.
The compound `O=C(NCCN1CCC(O)(Cc2ccccc2)CC1)Nc1cc(Cl)nc2ccsc12` returned an inhibition in series [1] of 25.6%.
In the case of `Cn1cnc2c(NC(=O)NCCN3CCC(O)(Cc4ccccc4)CC3)ccnc21`, the 50% inhibitory concentration (IC50) on Urotensin-2 receptor came to 2140 nM.
In turn, `O=C(NCCN1CCC(O)(Cc2ccccc2)CC1)Nc1ccnc2cc(-c3ccccc3)sc12` yielded an inhibition in series [1] of 47.3%.
Regarding `Cc1csc2c(NC(=O)NCCN3CCC(O)(Cc4ccccc4)CC3)ccnc12`, the IC50 on Urotensin-2 receptor was determined as 1230 nM.
`O=C(NCCN1CCC(O)(Cc2ccccc2)CC1)Nc1cc(-c2ccccc2)nc2ccsc12`: the inhibition in series [1] was 25.4%.
With `Cc1cccc(CC2(O)CCN(CCNC(=O)Nc3ccnc4ccsc34)CC2)c1`, on Urotensin-2 receptor, the IC50 came out at 140 nM.
The same measure, in the same setting: the result for `CCc1cc(NC(=O)NCCN2CCC(O)(Cc3ccccc3)CC2)c2sccc2n1` reads 60 nM.
In the case of `O=C(NCCN1CCC(O)(Cc2ccc(F)cc2)CC1)Nc1ccnc2ccsc12`, the results for the IC50 (in series [2]; at Urotensin-2 receptor) were 5 µM and 13 nM, respectively. Further, the results for the remaining at 0.5 h in series [3] and in series [5] were 100% and 52%, respectively. Moreover, the Papp in series [4] stood at 0.027 ×10⁻⁶ cm/s. Further, the inhibition at 10 µM against CYP3A4 is above 10%.
As to `O=C(NCCN1CCC(O)(Cc2ccccc2)CC1)Nc1ccnc2ccsc12`, the IC50 at Urotensin-2 receptor was determined as 36 nM.
On Urotensin-2 receptor, `Cn1ccc2c(NC(=O)NCCN3CCC(O)(Cc4ccccc4)CC3)ccnc21` displayed an IC50 of 160 nM.
On the same count and under the same terms, the result for `O=C(NCCN1CCC(O)(Cc2ccccc2)CC1)Nc1ccnc2c(Br)csc12` reads 3220 nM.
